Measured values from patent US11548870B2, “Compounds useful as inhibitors of helios protein” (Bristol-Myers Squibb Company, priority 2019, dated 2023).
Values joined by “and” are separate entries in the source; they are usually repeats but may differ in a detail not shown here. Identical values can stand only once.

Legend:
[1] = biological target: T1, Helios (Homo sapiens, UniProt Q96SW2+Q9UKS7); assay: Helios Cellular Degradation Assay (flow cytometry, Helios-PE antibody staining, 72 h); type: cell-based; details: Jurkat cells, 72 h incubation, flow cytometry; for Dmax: Jurkat, read-out: Helios Dmax
T1 construct: fluorescently labelled antibodies against Helios and Ikaros; endogenous in cells; host or cells: Jurkat cells
T1 sequence (Q9UKS7 whole entry): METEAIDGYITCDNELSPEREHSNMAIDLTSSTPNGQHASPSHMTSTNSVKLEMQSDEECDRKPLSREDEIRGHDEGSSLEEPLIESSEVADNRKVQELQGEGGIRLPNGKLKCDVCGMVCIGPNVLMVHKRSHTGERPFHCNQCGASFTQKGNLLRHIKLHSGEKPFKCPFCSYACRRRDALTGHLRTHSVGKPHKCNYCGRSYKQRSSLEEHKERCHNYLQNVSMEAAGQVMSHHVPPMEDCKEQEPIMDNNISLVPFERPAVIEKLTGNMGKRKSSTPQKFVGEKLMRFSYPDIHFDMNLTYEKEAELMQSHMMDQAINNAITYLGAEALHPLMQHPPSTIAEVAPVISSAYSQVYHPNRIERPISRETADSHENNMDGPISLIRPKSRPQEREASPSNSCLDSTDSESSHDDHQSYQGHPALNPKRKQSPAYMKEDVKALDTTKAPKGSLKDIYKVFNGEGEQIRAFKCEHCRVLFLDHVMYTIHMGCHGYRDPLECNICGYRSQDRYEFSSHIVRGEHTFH
T1 sequence (Q96SW2 whole entry): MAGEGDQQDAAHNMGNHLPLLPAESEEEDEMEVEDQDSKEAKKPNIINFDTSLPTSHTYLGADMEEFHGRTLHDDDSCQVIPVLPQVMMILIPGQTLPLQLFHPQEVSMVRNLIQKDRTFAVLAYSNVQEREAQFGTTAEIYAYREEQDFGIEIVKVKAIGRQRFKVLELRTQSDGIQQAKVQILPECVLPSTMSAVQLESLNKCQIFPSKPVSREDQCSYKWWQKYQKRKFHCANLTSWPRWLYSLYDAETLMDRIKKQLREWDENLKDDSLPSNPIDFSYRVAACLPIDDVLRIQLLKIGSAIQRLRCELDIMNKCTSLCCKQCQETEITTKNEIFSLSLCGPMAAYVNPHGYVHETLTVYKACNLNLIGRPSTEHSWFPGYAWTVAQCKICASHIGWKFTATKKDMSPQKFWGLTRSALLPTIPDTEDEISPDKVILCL
T1 sequence (Q16531 whole entry partner): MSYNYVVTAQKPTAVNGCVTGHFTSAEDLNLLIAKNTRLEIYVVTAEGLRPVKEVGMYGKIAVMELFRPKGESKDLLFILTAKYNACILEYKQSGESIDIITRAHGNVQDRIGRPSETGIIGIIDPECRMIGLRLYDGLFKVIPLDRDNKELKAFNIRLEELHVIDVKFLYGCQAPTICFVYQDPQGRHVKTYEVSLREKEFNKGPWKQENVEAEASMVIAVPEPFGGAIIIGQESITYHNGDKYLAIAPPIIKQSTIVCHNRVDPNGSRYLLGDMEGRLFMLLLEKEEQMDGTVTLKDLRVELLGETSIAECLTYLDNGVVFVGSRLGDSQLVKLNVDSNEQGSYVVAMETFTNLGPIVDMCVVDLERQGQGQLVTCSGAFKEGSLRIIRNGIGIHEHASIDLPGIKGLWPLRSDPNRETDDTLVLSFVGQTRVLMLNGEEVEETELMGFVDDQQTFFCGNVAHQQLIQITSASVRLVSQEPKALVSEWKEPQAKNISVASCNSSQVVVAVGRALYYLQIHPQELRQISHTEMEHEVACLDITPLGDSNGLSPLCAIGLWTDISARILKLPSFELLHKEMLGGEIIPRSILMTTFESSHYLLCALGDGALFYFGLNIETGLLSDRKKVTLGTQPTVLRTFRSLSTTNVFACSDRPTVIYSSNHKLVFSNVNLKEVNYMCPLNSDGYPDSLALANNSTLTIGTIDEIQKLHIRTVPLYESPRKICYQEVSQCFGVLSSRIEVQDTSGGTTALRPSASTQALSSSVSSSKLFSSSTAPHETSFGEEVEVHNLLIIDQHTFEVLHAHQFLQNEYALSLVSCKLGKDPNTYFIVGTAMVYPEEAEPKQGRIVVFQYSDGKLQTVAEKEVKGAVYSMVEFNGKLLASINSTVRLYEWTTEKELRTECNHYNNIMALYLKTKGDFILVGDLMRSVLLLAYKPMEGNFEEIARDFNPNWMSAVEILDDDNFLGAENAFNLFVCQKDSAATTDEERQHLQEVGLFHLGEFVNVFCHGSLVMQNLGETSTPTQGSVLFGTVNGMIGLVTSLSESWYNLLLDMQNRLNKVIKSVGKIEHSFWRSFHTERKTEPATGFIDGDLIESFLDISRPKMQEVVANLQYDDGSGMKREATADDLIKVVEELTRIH
How it was run: (§1)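 Flow cytometry of fixed, permeabilized Jurkat cells stained with anti-Helios-PE and anti-Ikaros-Alexa488 (1 h, room temperature) measured remaining protein. Treatment lasted 72 h at 37 °C, 5% CO2, at 80,000 cells/well in RPMI with 10% FBS.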

[2] = biological target: T2, Ikaros (Homo sapiens, UniProt Q13422); assay: Helios Cellular Degradation Assay, Ikaros readout (flow cytometry, Ikaros-Alexa488 antibody staining, 72 h); type: cell-based; details: Jurkat cells, 72 h incubation, flow cytometry; for Dmax: Jurkat, read-out: Ikaros Dmax
T2 construct: fluorescently labelled antibodies against Helios and Ikaros; endogenous in cells; host or cells: Jurkat cells
T2 sequence (Q96SW2 whole entry partner): as the sequence (Q96SW2 whole entry) above
T2 sequence (Q16531 whole entry partner): as the sequence (Q16531 whole entry partner) above
T2 sequence (Q13422 whole entry): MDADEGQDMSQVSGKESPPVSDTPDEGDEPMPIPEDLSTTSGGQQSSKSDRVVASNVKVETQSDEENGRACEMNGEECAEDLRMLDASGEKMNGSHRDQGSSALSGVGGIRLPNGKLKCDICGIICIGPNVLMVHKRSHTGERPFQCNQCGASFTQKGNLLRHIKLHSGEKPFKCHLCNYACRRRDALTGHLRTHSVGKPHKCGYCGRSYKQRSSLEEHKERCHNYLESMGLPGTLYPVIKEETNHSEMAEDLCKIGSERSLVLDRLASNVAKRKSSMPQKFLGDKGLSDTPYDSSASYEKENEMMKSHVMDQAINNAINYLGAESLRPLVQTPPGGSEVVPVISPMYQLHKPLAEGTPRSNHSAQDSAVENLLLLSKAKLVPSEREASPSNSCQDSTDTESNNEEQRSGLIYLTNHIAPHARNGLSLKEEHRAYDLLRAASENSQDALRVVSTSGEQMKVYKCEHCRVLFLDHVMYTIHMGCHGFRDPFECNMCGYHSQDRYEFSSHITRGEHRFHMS
How it was run: as §1

| DC50 [1] | Dmax [1] | DC50 [2] | Dmax [2] | Helios Dmax [1] | Ikaros Dmax [2] | Structure (SMILES) |
| --- | --- | --- | --- | --- | --- | --- |
| 45 nM | 78% | > 10000 nM | 7% |  |  | COC1(C)CN(Cc2ccnc(-c3ccc4c(c3)CN(C3CCC(=O)NC3=O)C4=O)c2)C1 (stereo not shown) [Example 196, 3-(5-(4-((3-methoxy-3-methylazetidin-1-yl)methyl)pyridin-2-yl)-1-oxoisoindolin-2-yl)piperidine-2,6-dione] |
| 42 nM | 75% | > 10000 nM | 20% |  |  | COC1CN(Cc2ccnc(-c3ccc4c(c3)CN(C3CCC(=O)NC3=O)C4=O)c2)C1 (stereo not shown) [Example 197, 3-(5-(4-((3-methoxyazetidin-1-yl)methyl)pyridin-2-yl)-1-oxoisoindolin-2-yl)piperidine-2,6-dione] |
| 42 nM | 75% | > 10000 nM | 18% |  |  | CCOC1CN(Cc2ccnc(-c3ccc4c(c3)CN(C3CCC(=O)NC3=O)C4=O)c2)C1 (stereo not shown) [Example 198, 3-(5-(4-((3-ethoxyazetidin-1-yl)methyl)pyridin-2-yl)-1-oxoisoindolin-2-yl) piperidine-2,6-dione] |
| 190 nM | 69% | > 10000 nM | 22% |  |  | CN(C)C(=O)C1CN(Cc2ccnc(-c3ccc4c(c3)CN(C3CCC(=O)NC3=O)C4=O)c2)C1 (stereo not shown) [Example 202, 1-((2-(2-(2,6-dioxopiperidin-3-yl)-1-oxoisoindolin-5-yl)pyridin-4-yl)methyl)-N,N-dimethylazetidine-3-carboxamide] |
| 740 nM | 66% | > 10000 nM | 9% |  |  | NC(=O)C1CCN1Cc1ccnc(-c2ccc3c(c2)CN(C2CCC(=O)NC2=O)C3=O)c1 (stereo not shown) [Example 206, 1-((2-(2-(2,6-dioxopiperidin-3-yl)-1-oxoisoindolin-5-yl)pyridin-4-yl)methyl)azetidine-2-carboxamide] |

The next lines start with the molecule.

| Structure (SMILES) | DC50 [1] | Dmax [1] | DC50 [2] | Dmax [2] | Helios Dmax [1] | Ikaros Dmax [2] |
| --- | --- | --- | --- | --- | --- | --- |
| O=C1CCC(N2Cc3cc(-c4nccc(CN5CC(c6ccccc6)C5)c4F)ccc3C2=O)C(=O)N1 (stereo not shown) [Example 191, 3-(5-(3-fluoro-4-((3-phenylazetidin-1-yl)methyl)pyridin-2-yl)-1-oxoisoindolin-2-yl) piperidine-2,6-dione] | 3200 nM | 52% | > 10000 nM | 3% |  |  |
| O=C1CCC(N2Cc3cc(-c4nccc(CN5CC(c6cccnc6)C5)c4F)ccc3C2=O)C(=O)N1 (stereo not shown) [Example 192, 3-(5-(3-fluoro-4-((3-(pyridin-3-yl)azetidin-1-yl)methyl)pyridin-2-yl)-1-oxoisoindolin-2-yl)piperidine-2,6-dione] | > 10000 nM | 41% | > 10000 nM | 16% |  |  |
| O=C1CCC(N2Cc3cc(-c4nccc(CN5CCC5c5ccccc5)c4F)ccc3C2=O)C(=O)N1 (stereo not shown) [Example 193, 3-(5-(3-fluoro-4-((2-phenylazetidin-1-yl)methyl)pyridin-2-yl)-1-oxoisoindolin-2-yl) piperidine-2,6-dione] | 120 nM | 60% | > 10000 nM | 14% |  |  |
| Cc1cc2c(cc1-c1cc(CN(C)C)ccn1)CN(C1CCC(=O)NC1=O)C2=O (stereo not shown) [Example 194, 3-(5-(4-((dimethylamino)methyl)pyridin-2-yl)-6-methyl-1-oxoisoindolin-2-yl)piperidine-2,6-dione] | > 10000 nM | 5.16% | > 10000 nM |  | 5.2% | 0.04% and 3% |
| Cc1ccc(C2CCN(Cc3ccnc(-c4ccc5c(c4)CN(C4CCC(=O)NC4=O)C5=O)c3)CC2)cc1 (stereo not shown) [Example 199, 3-(1-oxo-5-(4-((4-(p-tolyl)piperidin-1-yl)methyl)pyridin-2-yl)isoindolin-2-yl)piperidine-2,6-dione] | 130 nM | 60% | > 10000 nM | 3% |  |  |
| O=C1CCC(N2Cc3cc(-c4cc(CN5CC(c6cccnc6)C5)ccn4)ccc3C2=O)C(=O)N1 (stereo not shown) [Example 203, 3-(1-oxo-5-(4-((3-(pyridin-3-yl)azetidin-1-yl)methyl)pyridin-2-yl)isoindolin-2-yl)piperidine-2,6-dione] | 440 nM | 69% | > 10000 nM | 20% |  |  |
| O=C1CCC(N2Cc3c(ccc(-c4cc(CN5CC(c6ccccc6)C5)ccn4)c3F)C2=O)C(=O)N1 (stereo not shown) [Example 208, 3-(4-Fluoro-1-oxo-5-(4-((3-phenylazetidin-1-yl)methyl)pyridin-2-yl)isoindolin-2-yl)piperidine-2,6-dione] | 3 nM | 88% | > 10000 nM | 13% |  |  |
